According to ChEMBL document CHEMBL1131172 (J Med Chem, 1998):

Columns and labels:
A549 [1] = assay: inhibition of the growth of non-small-cell lung cancer (A549/ATCC) cell line; assay type: functional; details: Homo sapiens
MDA-N [2] = assay: inhibition of the growth of breast cancer(MDA-N) cell line; assay type: functional; details: Homo sapiens
SK-MEL-5 [3] = assay: Inhibition of the growth of melanoma cancer (SK-MEL-5) cell line at 0.01 uM; assay type: functional; details: Homo sapiens
Dihydrofolate reductase [4] = biological target: T1, Dihydrofolate reductase (Pneumocystis carinii, UniProt P16184)
T1 sequence (P16184 whole entry): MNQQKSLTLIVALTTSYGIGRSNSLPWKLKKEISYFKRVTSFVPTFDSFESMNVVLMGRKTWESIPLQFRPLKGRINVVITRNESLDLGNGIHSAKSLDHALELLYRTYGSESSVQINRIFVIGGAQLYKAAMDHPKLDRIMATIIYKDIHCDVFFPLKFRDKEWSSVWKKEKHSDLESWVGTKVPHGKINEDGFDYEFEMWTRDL
Description: Inhibitory activity against dihydrofolate reductase (DHFR) from Pneumocystis carinii

UO-31 = assay: inhibition of the growth of renal cancer(UO-31) cell line; assay type: functional; details: Homo sapiens
HCT-116 [5] = assay: inhibition of the growth of colon cancer(HCT116) cell line; assay type: functional; details: Homo sapiens
NCI-H23 = assay: inhibition of the growth of non-small-cell lung cancer (NCI-H23) cell line; assay type: functional; details: Homo sapiens
786-0 = assay: inhibition of the growth of renal cancer(786-0) cell line; assay type: functional; details: Homo sapiens
SK-MEL-5 [6] = assay: inhibition of the growth of melanoma cancer (SK-MEL-5) cell line; assay type: functional; details: Homo sapiens
Dihydrofolate reductase [7] = biological target: T2, Dihydrofolate reductase (Rattus norvegicus, UniProt Q920D2)
T2 sequence (Q920D2 whole entry): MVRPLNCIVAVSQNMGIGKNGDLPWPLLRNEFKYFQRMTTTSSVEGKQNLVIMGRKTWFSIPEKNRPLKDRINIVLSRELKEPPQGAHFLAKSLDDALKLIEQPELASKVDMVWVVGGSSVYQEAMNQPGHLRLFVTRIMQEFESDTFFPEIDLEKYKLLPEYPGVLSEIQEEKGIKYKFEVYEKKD
Description: Inhibitory activity against dihydrofolate reductase (DHFR) from rat liver

NCI-H322M = assay: inhibition of the growth of non-small-cell lung cancer (NCI-H322M) cell line; assay type: functional; details: Homo sapiens
RPMI-8226 [8] = assay: inhibition of the growth of leukemia (RPMI-8226) cell line; assay type: functional; details: Homo sapiens
A549 [9] = assay: Inhibition of the growth of non-small-cell lung cancer (A549/ATCC) cell line at 0.01 uM; assay type: functional; details: Homo sapiens
NCI/ADR-RES [10] = assay: Inhibition of the growth of breast cancer (MCF7/ADR-RES) cell line at 0.01 uM; assay type: functional; details: Homo sapiens
NCI/ADR-RES [11] = assay: inhibition of the growth of breast cancer (MCF7/ADR-RES) cell line; assay type: functional; details: Homo sapiens
NCI-H460 [12] = assay: inhibition of the growth of non-small-cell lung cancer (NCI-H460) cell line; assay type: functional; details: Homo sapiens
SNB-19 = assay: inhibition of the growth of CNS cancer(SNB-19) cell line; assay type: functional; details: Homo sapiens
OVCAR-8 [13] = assay: Inhibition of the growth of ovarian cancer(OVCAR-8) cell line at 0.01 uM; assay type: functional; details: Homo sapiens
MOLT-4 = assay: inhibition of the growth of leukemia (MOLT-4) cell line; assay type: functional; details: Homo sapiens
MDA-MB-435 [14] = assay: Inhibition of the growth of breast cancer (MDA-MB-435) cell line at 0.01 uM; assay type: functional; details: Homo sapiens
MDA-N [15] = assay: Inhibition of the growth of breast cancer(MDA-N) cell line at 0.01 uM; assay type: functional; details: Homo sapiens
IGROV-1 [16] = assay: Inhibition of the growth of ovarian cancer(IGROVI) cell line at 0.01 uM; assay type: functional; details: Homo sapiens
HCT-15 [17] = assay: Inhibition of the growth of colon cancer(HCT-15) cell line at 0.01 uM; assay type: functional; details: Homo sapiens
SF-295 [18] = assay: Inhibition of the growth of CNS cancer(SF-295) cell line at 0.01 uM; assay type: functional; details: Homo sapiens
SF-539 = assay: inhibition of the growth of CNS cancer(SF-539) cell line; assay type: functional; details: Homo sapiens
RPMI-8226 [19] = assay: Inhibition of the growth of leukemia (RPMI-8226) cell line at 0.01 uM; assay type: functional; details: Homo sapiens
NCI-H460 [20] = assay: Inhibition of the growth of non-small-cell lung cancer (NCI-H460) cell line at 0.01 uM; assay type: functional; details: Homo sapiens
OVCAR-8 [21] = assay: inhibition of the growth of ovarian cancer(OVCAR-8) cell line; assay type: functional; details: Homo sapiens
SF-268 = assay: inhibition of the growth of CNS cancer(SF-268) cell line; assay type: functional; details: Homo sapiens
KM12 = assay: inhibition of the growth of colon cancer(KM-12) cell line; assay type: functional; details: Homo sapiens
CAKI-1 = assay: inhibition of the growth of renal cancer(CAKI-1) cell line; assay type: functional; details: Homo sapiens
HCT-15 [22] = assay: inhibition of the growth of colon cancer(HCT-15) cell line; assay type: functional; details: Homo sapiens
NCI-H522 = assay: inhibition of the growth of non-small-cell lung cancer (NCI-H522) cell line; assay type: functional; details: Homo sapiens
SF-295 [23] = assay: inhibition of the growth of CNS cancer(SF-295) cell line; assay type: functional; details: Homo sapiens
IGROV-1 [24] = assay: inhibition of the growth of ovarian cancer(IGROVI) cell line; assay type: functional; details: Homo sapiens
M14 = assay: inhibition of the growth of melanoma cancer (M14) cell line; assay type: functional; details: Homo sapiens
SR = assay: inhibition of the growth of leukemia(SR) cell line; assay type: functional; details: Homo sapiens
[25] = biological target: T3, Bifunctional dihydrofolate reductase-thymidylate synthase (Toxoplasma gondii, UniProt Q07422)
T3 sequence (Q07422 whole entry): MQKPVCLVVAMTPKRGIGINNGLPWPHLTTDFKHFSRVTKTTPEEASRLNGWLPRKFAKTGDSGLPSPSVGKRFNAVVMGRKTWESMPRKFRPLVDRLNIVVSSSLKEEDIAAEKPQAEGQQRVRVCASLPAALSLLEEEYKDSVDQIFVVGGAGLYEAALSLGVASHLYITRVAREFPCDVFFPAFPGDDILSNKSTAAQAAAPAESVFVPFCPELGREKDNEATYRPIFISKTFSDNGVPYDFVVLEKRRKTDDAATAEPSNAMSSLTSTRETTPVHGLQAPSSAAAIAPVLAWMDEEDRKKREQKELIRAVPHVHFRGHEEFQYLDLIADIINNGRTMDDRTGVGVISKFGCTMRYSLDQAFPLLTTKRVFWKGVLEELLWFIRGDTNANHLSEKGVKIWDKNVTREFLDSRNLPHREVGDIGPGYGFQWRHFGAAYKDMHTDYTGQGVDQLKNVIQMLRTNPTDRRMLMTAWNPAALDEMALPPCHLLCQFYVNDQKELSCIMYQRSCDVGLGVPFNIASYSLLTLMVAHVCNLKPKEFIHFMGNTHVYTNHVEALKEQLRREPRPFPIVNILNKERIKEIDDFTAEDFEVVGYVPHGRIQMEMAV
Description: Inhibitory activity against dihydrofolate reductase (DHFR) from Toxoplasma gondii

MDA-MB-435 [26] = assay: inhibition of the growth of breast cancer (MDA-MB-435) cell line; assay type: functional; details: Homo sapiens
HCT-116 [27] = assay: Inhibition of the growth of colon cancer(HCT116) cell line at 0.01 uM; assay type: functional; details: Homo sapiens
MCF7 = assay: inhibition of the growth of breast cancer (MCF-7) cell line; assay type: functional; details: Homo sapiens
DU-145 = assay: inhibition of the growth of prostate cancer(DU-145) cell line; assay type: functional; details: Homo sapiens

GI50 (A549 [1]): < 10 nM | IC50 (Dihydrofolate reductase [4]): 99.5 nM | GI50 (HCT-116 [5]): < 10 nM | GI50 (NCI-H23): 30 nM | GI50 (786-0): 220 nM | GI50 (SK-MEL-5 [6]): < 10 nM | IC50 (Dihydrofolate reductase [7]): 1.3 nM | GI50 (NCI-H322M): 70 nM | GI50 (RPMI-8226 [8]): < 10 nM | GI50 (NCI-H460 [12]): < 10 nM | GI50 (MOLT-4): 60 nM | GI50 (OVCAR-8 [21]): < 10 nM | GI50 (HCT-15 [22]): < 10 nM | GI50 (NCI-H522): 60 nM | GI50 (MDA-MB-435 [26]): < 10 nM | GI50 (MCF7): 140 nM | GI50 (DU-145): 120 nM
Structure (SMILES): CN(c1ccccc1)c1ccc2nc(N)nc(N)c2n1
GI50 (MDA-N [2]): < 10 nM | inhibition at 0.01 µM (SK-MEL-5 [3]): 59% | GI50 (UO-31): 30 nM | inhibition at 0.01 µM (A549 [9]): 65% | inhibition at 0.01 µM (NCI/ADR-RES [10]): 83% | GI50 (NCI/ADR-RES [11]): < 10 nM | GI50 (SNB-19): 40 nM | inhibition at 0.01 µM (OVCAR-8 [13]): 91% | inhibition at 0.01 µM (MDA-MB-435 [14]): 73% | inhibition at 0.01 µM (MDA-N [15]): 68% | inhibition at 0.01 µM (IGROV-1 [16]): 53% | inhibition at 0.01 µM (HCT-15 [17]): 66% | inhibition at 0.01 µM (SF-295 [18]): 59% | GI50 (SF-539): < 10 nM | inhibition at 0.01 µM (RPMI-8226 [19]): 59% | inhibition at 0.01 µM (NCI-H460 [20]): 80% | GI50 (SF-268): 10 nM | GI50 (KM12): 190 nM | GI50 (CAKI-1): 10 nM | GI50 (SF-295 [23]): < 10 nM | GI50 (IGROV-1 [24]): < 10 nM | GI50 (M14): 10 nM | GI50 (SR): 50 nM | IC50 [25]: 2.2 nM | inhibition at 0.01 µM (HCT-116 [27]): 80%
